Laboratory results: US6689779B2, “Oxazolidinone derivatives and a process for the preparation thereof” (priority 2000, dated 2004)
Values after ≈ are worked out from the molar mass of the structure shown.

Key:
Type in all cases: cell-based
[1] = test system: vancomycin resistant Enterococci; assay: Assay for in vitro antibacterial activity, agar dilution method: VRE; settings: for Antibacterial Activity (MIC50) VRE: agar dilution method, vancomycin resistant Enterococci
[2] = test system: methicillin resistant Staphylococcus aureus; assay: Assay for in vitro antibacterial activity, agar dilution method: MRSA; settings: for Antibacterial Activity (MIC50) MRSA: agar dilution method, methicillin resistant Staphylococcus aureus
H. Influenzae = assay: Assay for in vitro antibacterial activity, agar dilution method: H. Influenzae
[3] = test system: ATCC 27294: Vancomycine Mycobacterium tuberculosis; assay: Assay for in vitro antibacterial activity, agar dilution method: ATCC 27294; settings: for Antibacterial Activity (MIC50) ATCC 27294: agar dilution method, Vancomycine Mycobacterium tuberculosis; for MIC50: Mycobacterium tuberculosis, ATCC27294, read-out: Antibacterial Activity (MIC50) ATCC 27294

Row | Structure (SMILES) | Antibacterial Activity (MIC50) VRE [1] | Antibacterial Activity (MIC50) MRSA [2] | Antibacterial Activity (MIC50) Influenzae (H. Influenzae) | Antibacterial Activity (MIC50) ATCC 27294 [3] | MIC50 [3] | MIC50 ([1]; Enterococcus, VRE, read-out: Antibacterial Activity (MIC50) VRE) | MIC50 ([2]; Staphylococcus aureus, MRSA, read-out: Antibacterial Activity (MIC50) MRSA) | MIC50 (H. Influenzae; Haemophilus influenzae)
1 | CC(=O)NC[C@H]1CN(c2ccc(-c3ccc(-n4cncn4)nc3)c(F)c2)C(=O)O1 [Exmp. 129, (S)-[N-3-(4-(2-(1,2,4-triazol-1-yl)pyridin-5-yl)-3-fluorophenyl)-2-oxo-5-oxazolidinyl]methyl acetamide] | 0.2 µg/mL | 0.39 µg/mL | 6.25 µg/mL | 0.1 µg/mL | – | – | – | –
2 | CC(=O)NC[C@H]1CN(c2ccc(-c3ccc(-c4nnn[nH]4)nc3)c(F)c2)C(=O)O1 [Exmp. 152, (S)-[N-3-(4-(2-(5-Tetrazolyl)-5-pyridinyl)-3-fluorophenyl)-2-oxo-5-oxazolidinyl]methyl Acetamide] | >25 µg/mL | >25 µg/mL | >25 µg/mL | >25 µg/mL | – | – | – | –
3 | CC(=O)NC[C@H]1CN(c2ccc(-c3ccc(-n4cnnn4)nc3)c(F)c2)C(=O)O1 [Exmp. 136, (S)-(N-3-(4-(2-(1-tetrazolyl)-pyridin-5-yl)-3-fluorophenyl)-2-oxo-5-oxazolidinyl)methyl acetamide] | 0.2 µg/mL | 0.78 µg/mL | 12.5 µg/mL | 0.1 µg/mL | – | – | – | –
4 | CC(=O)NC[C@H]1CN(c2ccc(-c3ccc(-c4nnn(C)n4)nc3)c(F)c2)C(=O)O1 [Exmp. 140, (S)-[N-3-(4-(2-(2-methyl-5-tetrazolyl)-pyridin-5-yl)-3-fluorophenyl)-2-oxo-5-oxazolidinyl]methyl acetamide] | 0.2 µg/mL | 0.78 µg/mL | 12.5 µg/mL | 0.1 µg/mL | – | – | – | –
5 | CO[C@H]1/C=C/O[C@@]2(C)Oc3c(C)c(O)c4c(O)c(c(/C=N/N5CCN(C)CC5)c(O)c4c3C2=O)NC(=O)/C(C)=C\C=C\[C@H](C)[C@H](O)[C@@H](C)[C@@H](O)[C@@H](C)[C@H](OC(C)=O)[C@@H]1C [Rifampin, reference compound] | – | – | – | – | 0.2 µg/mL (≈ 0.243 µM) | – | – | –
6 | CC(=O)NC[C@H]1CN(c2ccc(-c3ccc(-c4nnc(C)o4)nc3)c(F)c2)C(=O)O1 [Exmp. 137, (S)-[N-3-(4-(2-(5-methyl-(1,3,4)-oxadiazol-2-yl)-pyridin-5-yl)-3-fluorophenyl)-2-oxo-5-oxazolidinyl]methyl acetamide] | 0.2 µg/mL | 0.39 µg/mL | 3.13 µg/mL | 0.1 µg/mL | – | – | – | –
7 | CC(=O)NC[C@H]1CN(c2ccc(-c3ccc(-c4nnnn4C)nc3)c(F)c2)C(=O)O1 [Exmp. 139, (S)-[N-3-(4-(2-(1-methyl-5-tetrazolyl)-pyridin-5-yl)-3-fluorophenyl)-2-oxo-5-oxazolidinyl]methyl acetamide] | 0.2 µg/mL | 0.78 µg/mL | 3.13 µg/mL | 0.1 µg/mL | – | – | – | –
8 | CC(=O)NC[C@H]1CN(c2ccc(N3CCOCC3)c(F)c2)C(=O)O1 [Example U-100766, reference compound] | – | – | – | – | 1.56 µg/mL (≈ 4.62 µM) | 1.56 µg/mL (≈ 4.62 µM) | 3.13 µg/mL (≈ 9.28 µM) | 25 µg/mL (≈ 74.1 µM)
9 | CC(=O)NC[C@H]1CN(c2ccc(-c3ccc(N4CCOC4=O)nc3)c(F)c2)C(=O)O1 [Exmp. 143, (S)-[N-3-(4-(2-(2-oxo-(1,3)-oxazolidin-3-yl)-pyridin-5-yl)-3-fluorophenyl)-2-oxo-5-oxazolidinyl]methyl acetamide] | 0.2 µg/mL | 0.78 µg/mL | 1.56 µg/mL | 0.1 µg/mL | – | – | – | –
10 | CC(=O)NC[C@H]1CN(c2ccc(-c3ccc(-c4noc(C)n4)nc3)c(F)c2)C(=O)O1 [Exmp. 138, (S)-[N-3-(4-(2-(5-methyl-(1,2,4)-oxadiazol-3-yl)pyridin-5-yl)-3-fluorophenyl)-2-oxo-5-oxazolidinyl]methyl acetamide] | 0.39 µg/mL | 0.78 µg/mL | 3.13 µg/mL | 0.1 µg/mL | – | – | – | –
11 | N[C@@H]1CON=C1O [Cycloserine, reference compound] | – | – | – | – | 6.25 µg/mL (≈ 61.2 µM) | – | – | –
